Among the data in PubChem BioAssay AID200 (DTP/NCI, 2004) are T/C values, retold here.

“And” between values parts separate entries of the source, which are not always exact repeats. Identical values can stand only once. Toxic doses and inconclusive results are not listed. Where a SMILES comes first, the peptide text is derived from it. The star is where a group is joined. Cbz = O=C(OCc1ccccc1)*

The assay relates to B6C3F1 mice, B16 melanoma ip, median survival T/C. Put plainly: NCI In Vivo Anticancer Drug Screen. Data for tumor model B16 Melanoma (intraperitoneal) in B6C3F1 mice. Conditions: endpoint: median survival time, higher = longer survival. A digest of the protocol:
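Readout: survival or tumor size in treated mice relative to vehicle controls (T/C). Model uses transplantable tumors grown in mice.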

The mark [1] stands for this setting: dose: 6.25 mg/kg/injection, schedule: Q01DX009 (ip), vehicle: saline with Tween-80.
Where [2] appears, read: dose: 12.5 mg/kg/injection, schedule: Q01DX009 (ip), vehicle: saline with Tween-80.
[3] abbreviates: dose: 25.0 mg/kg/injection, schedule: Q01DX009 (ip), vehicle: saline with Tween-80.
[4] abbreviates: dose: 50.0 mg/kg/injection, schedule: Q01DX009 (ip), vehicle: saline with Tween-80.
The mark [5] stands for this setting: dose: 100.0 mg/kg/injection, schedule: Q01DX009 (ip), vehicle: saline with Tween-80.
[6] abbreviates: dose: 200.0 mg/kg/injection, schedule: Q01DX009 (ip), vehicle: saline with Tween-80.
Where [7] appears, read: dose: 12.5 mg/kg/injection, schedule: Q01DX009 (ip), vehicle: saline.
Where [8] appears, read: dose: 25.0 mg/kg/injection, schedule: Q01DX009 (ip), vehicle: saline.
Setting [9] is: dose: 400.0 mg/kg/injection, schedule: Q01DX009 (ip), vehicle: saline.
The mark [10] stands for this setting: dose: 400.0 mg/kg/injection, schedule: Q01DX009 (ip), vehicle: saline with Tween-80.
Setting [11] is: dose: 12.5 mg/kg/injection, schedule: Q01DX009 (ip), vehicle: Klucel (hydroxypropylcellulose) (HPC).
Setting [12] is: dose: 25.0 mg/kg/injection, schedule: Q01DX009 (ip), vehicle: Klucel (hydroxypropylcellulose) (HPC).
Setting [13] is: dose: 50.0 mg/kg/injection, schedule: Q01DX009 (ip), vehicle: Klucel (hydroxypropylcellulose) (HPC).
[14] abbreviates: dose: 100.0 mg/kg/injection, schedule: Q01DX009 (ip), vehicle: Klucel (hydroxypropylcellulose) (HPC).
[15] abbreviates: dose: 200.0 mg/kg/injection, schedule: Q01DX009 (ip), vehicle: Klucel (hydroxypropylcellulose) (HPC).
Where [16] appears, read: dose: 400.0 mg/kg/injection, schedule: Q01DX009 (ip), vehicle: Klucel (hydroxypropylcellulose) (HPC).

With `Nc1nc(=S)c2ncn(C3OC(COC(=O)c4ccccc4)C(OC(=O)c4ccccc4)C3OC(=O)c3ccccc3)c2[nH]1` (centres undefined), the T/C runs as follows: under setting [1], 112 % of control; under setting [2], 117 % of control; under setting [3], 111 % of control; under setting [4], 97 % of control.

On to `O=C1N[C@@H]([C@H]2CC[C@H](Cl)CN2)C(=O)N[C@H]1[C@H]1CC[C@H](Cl)CN1`, for which the T/C runs as follows: (dose: 0.25 mg/kg/injection, schedule: Q01DX005 (ip), vehicle: saline) 99 % of control; (dose: 0.25 mg/kg/injection, schedule: Q01DX005 (iv), vehicle: saline) 105 % of control; (dose: 0.25 mg/kg/injection, schedule: Q01DX009 (ip), vehicle: saline) 107 % of control; (dose: 0.5 mg/kg/injection, schedule: Q01DX005 (ip), vehicle: saline) 100 % of control; (dose: 0.5 mg/kg/injection, schedule: Q01DX005 (iv), vehicle: saline) 95 % of control; (dose: 0.5 mg/kg/injection, schedule: Q01DX005 (oral), vehicle: saline) 96 % of control. The T/C is, setting by setting: (dose: 0.5 mg/kg/injection, schedule: Q04DX003 (ip), vehicle: saline) 97 % of control; (dose: 1.0 mg/kg/injection, schedule: Q01DX005 (ip), vehicle: saline) 124 % of control; (dose: 1.0 mg/kg/injection, schedule: Q01DX005 (iv), vehicle: saline) 99 % of control; (dose: 1.0 mg/kg/injection, schedule: Q01DX005 (oral), vehicle: saline) 99 % of control; (dose: 1.0 mg/kg/injection, schedule: Q04DX003 (ip), vehicle: saline) 103 % of control; (dose: 2.0 mg/kg/injection, schedule: Q01DX005 (iv), vehicle: saline) 108 % of control. The T/C by setting is: (dose: 2.0 mg/kg/injection, schedule: Q01DX005 (oral), vehicle: saline) 115 % of control; (dose: 2.0 mg/kg/injection, schedule: Q04DX003 (ip), vehicle: saline) 108 % of control; (dose: 4.0 mg/kg/injection, schedule: Q01DX005 (ip), vehicle: saline) 183 % of control; (dose: 4.0 mg/kg/injection, schedule: Q01DX005 (iv), vehicle: saline) 120 % of control; (dose: 4.0 mg/kg/injection, schedule: Q01DX005 (oral), vehicle: saline) 110 % of control; (dose: 4.0 mg/kg/injection, schedule: Q04DX003 (ip), vehicle: saline) 112 % of control.

`CCCCC/C(=C\c1ccccc1)C1OCC(COCC)O1` (centres undefined): the T/C by setting is: (dose: 6.25 mg/kg/injection, schedule: Q01DX009 (ip), vehicle: saline + Tween-80 + alcohol) 87 % of control; (dose: 12.5 mg/kg/injection, schedule: Q01DX009 (ip), vehicle: saline + Tween-80 + alcohol) 91 % of control; (dose: 25.0 mg/kg/injection, schedule: Q01DX009 (ip), vehicle: saline + Tween-80 + alcohol) 94 % of control; (dose: 50.0 mg/kg/injection, schedule: Q01DX009 (ip), vehicle: saline + Tween-80 + alcohol) 93 % of control.

As to `O=[N+]([O-])c1ccc(-n2[nH]nnc2=S)cc1`, the T/C under setting [2] is 100 % of control and 101 % of control; the T/C under setting [3] is 101 % of control and 103 % of control; the T/C under setting [4] was 95 % of control; the T/C under setting [5] was 93 % of control and 100 % of control; the T/C under setting [6] was 88 % of control and 92 % of control.

As to `Cc1ccccc1CN1C2=NCCN2C(=O)C2=C1CCN(S(=O)(=O)c1ccc(Cl)c(S(N)(=O)=O)c1)C2`, the T/C by setting is: under setting [7], 101 % of control; under setting [8], 101 % of control; (dose: 50.0 mg/kg/injection, schedule: Q01DX009 (ip), vehicle: saline) 95 % of control; (dose: 100.0 mg/kg/injection, schedule: Q01DX009 (ip), vehicle: saline) 90 % of control; (dose: 200.0 mg/kg/injection, schedule: Q01DX009 (ip), vehicle: saline) 92 % of control; under setting [9], 90 % of control.

Consider `CCc1ncnc2cc(OCC3CO3)c(OC)cc12` (centres undefined), for which the T/C runs as follows: (dose: 6.25 mg/kg/injection, schedule: Q01DX009 (ip), vehicle: suspension in saline) 118 % of control; (dose: 50.0 mg/kg/injection, schedule: Q01DX009 (ip), vehicle: suspension in saline) 117 % of control.

Consider `CC(C(C(=O)N1CCCCC1)N1CCCCC1)N1CCCCC1` (centres undefined), for which the T/C runs as follows: under setting [5], 94 % of control; under setting [6], 95 % of control; under setting [10], 103 % of control.

As for `O=c1ssc(=Nc2ccccc2)n1-c1ccccc1`, the T/C under setting [11] is 98 % of control; the T/C under setting [12] was 101 % of control; the T/C under setting [13] is 96 % of control; the T/C under setting [14] was 97 % of control; the T/C under setting [15] was 92 % of control; the T/C under setting [16] is 96 % of control.

Turning to `O=C1C=C(Nc2ccccc2)c2ccccc2C1=O`, the T/C under setting [12] is 104 % of control, the T/C under setting [13] was 96 % of control and the T/C under setting [14] was 91 % of control.

Turning to `CC1C(c2ccccc2)OC(N2CCOCC2)C(C)(C)CN1C` (centres undefined), the T/C runs as follows: under setting [4], 103 % of control; under setting [5], 99 % of control; under setting [6], 96 % of control; under setting [10], 100 % of control.

In the case of `CCCCCCCCCCNCCS`, the T/C runs as follows: (dose: 5.0 mg/kg/injection, schedule: Q01DX009 (ip), vehicle: Klucel (hydroxypropylcellulose) (HPC)) 88 % of control; (dose: 10.0 mg/kg/injection, schedule: Q01DX009 (ip), vehicle: Klucel (hydroxypropylcellulose) (HPC)) 99 % of control; (dose: 20.0 mg/kg/injection, schedule: Q01DX009 (ip), vehicle: Klucel (hydroxypropylcellulose) (HPC)) 104 % of control.

As to `CCC(C)C(NC(=O)OCc1ccccc1)C(=O)NC(C(=O)O)C(C)C` (stereo not drawn) (Cbz-Ile-Val-OH; configuration not given here), the T/C is, setting by setting: under setting [14], 91 % of control; under setting [15], 94 % of control; under setting [16], 94 % of control.

Consider `COc1cccc2c1C(=O)c1c(O)c3c(c(O)c1C2=O)CC(O)(C(C)=O)CC3OC1CC(NC(=O)C(CCCCN)NC(=O)C2CCCN2)C(O)C(C)O1` (centres undefined), for which the T/C was 112 % of control (dose: 1.25 mg/kg/injection, schedule: Q01DX001 (ip), vehicle: water); 110 % of control (dose: 2.5 mg/kg/injection, schedule: Q01DX001 (ip), vehicle: water); 176 % of control (dose: 20.0 mg/kg/injection, schedule: Q01DX001 (ip), vehicle: water); 267 % of control (dose: 40.0 mg/kg/injection, schedule: Q01DX001 (ip), vehicle: water).

Turning to `NC(C(=O)O)c1ccc(CBr)cc1` (centres undefined), the T/C (dose: 6.0 mg/kg/injection, schedule: Q01DX009 (ip), vehicle: saline with Tween-80) is 114 % of control; the T/C under setting [1] was 111 % of control; the T/C under setting [3] was 159 % of control; the T/C under setting [4] was 155 % of control and 165 % of control; the T/C under setting [5] was 150 % of control and 183 % of control.

For the compound `CCCCCC(=O)O[C@]1(C(C)=O)CC[C@H]2[C@@H]3CCC4=CC(=O)CC[C@]4(C)[C@H]3CC[C@@]21C`, the T/C reads like this: under setting [11], 97 % of control and 101 % of control; under setting [12], 100 % of control and 104 % of control; under setting [13], 96 % of control and 98 % of control; under setting [14], 99 % of control and 100 % of control; under setting [15], 97 % of control and 100 % of control; under setting [16], 91 % of control and 97 % of control.

Consider `NC(CCC(=O)NC(CS)C(=O)NCC(=O)O)C(=O)O` (centres undefined), for which the T/C under setting [7] is 94 % of control; the T/C under setting [8] is 113 % of control and 86 % of control and 101 % of control; the T/C under setting [9] is 91 % of control and 104 % of control and 107 % of control.

In the case of `CCOC(=O)N(CCCCCCNC(c1ccccc1)S(=O)(=O)O)c1ccccc1` (centres undefined), the T/C is, setting by setting: under setting [12], 96 % of control; under setting [13], 100 % of control; under setting [14], 100 % of control.

`Nc1nc(N)c2cc(CNc3ccc(C(=O)NC(CC(=O)O)CC(=O)O)cc3)ccc2n1`: the T/C is 87 % of control (dose: 0.04 mg/kg/injection, schedule: Q01DX009 (ip), vehicle: Klucel (hydroxypropylcellulose) (HPC)); 89 % of control (dose: 0.09 mg/kg/injection, schedule: Q01DX009 (ip), vehicle: Klucel (hydroxypropylcellulose) (HPC)); 87 % of control (dose: 0.39 mg/kg/injection, schedule: Q01DX009 (ip), vehicle: Klucel (hydroxypropylcellulose) (HPC)); 110 % of control under setting [1]; 90 % of control under setting [2]; 95 % of control under setting [3]. Under setting [4], the T/C is 87 % of control.
